Test: xn = mol fraction of the nth substance listed
Details: Vibrating tube method

N#N [nitrogen] + O=C=O
mass density [kg/m3]
Details | x2 = 0.8785 | x2 = 0.9873
273.15 K, 1001 kPa, Gas | 22.5 | 21.9
273.15 K, 2000 kPa, Gas | 43.7 | –
273.15 K, 2001 kPa, Gas | – | 46
273.15 K, 3001 kPa, Gas | 69.6 | 76.9
273.15 K, 3480 kPa, Gas | – | 98
273.15 K, 3902 kPa, Liquid | – | 911.4
273.15 K, 4000 kPa, Liquid | – | 911.6
273.15 K, 4001 kPa, Gas | 104 | –
273.15 K, 4100 kPa, Gas | 108.6 | –
273.15 K, 5001 kPa, Liquid | – | 922.2
273.15 K, 6000 kPa, Liquid | – | 930.9
273.15 K, 7000 kPa, Liquid | – | 938.7
273.15 K, 8001 kPa, Liquid | – | 946
273.15 K, 8401 kPa, Liquid | 805 | –
273.15 K, 9000 kPa, Liquid | – | 952.8
273.15 K, 9001 kPa, Liquid | 811.5 | –
273.15 K, 10000 kPa, Liquid | – | 959.2
273.15 K, 10001 kPa, Liquid | 824 | –
273.15 K, 11001 kPa, Liquid | – | 965.2
273.15 K, 11003 kPa, Liquid | 836 | –
273.15 K, 12000 kPa, Liquid | 847 | 970.8
273.15 K, 13001 kPa, Liquid | 856.6 | –
273.15 K, 13002 kPa, Liquid | – | 976.3
273.15 K, 14000 kPa, Liquid | 865.1 | –
273.15 K, 14001 kPa, Liquid | – | 981.5
273.15 K, 15001 kPa, Liquid | – | 986.6
273.15 K, 15002 kPa, Liquid | 873.4 | –
273.15 K, 16000 kPa, Liquid | – | 991.4
273.15 K, 16001 kPa, Liquid | 880.8 | –
273.15 K, 17000 kPa, Liquid | 887.8 | –
273.15 K, 17002 kPa, Liquid | – | 996.1
273.15 K, 18000 kPa, Liquid | 894.6 | –
273.15 K, 18012 kPa, Liquid | – | 1000.6
273.15 K, 19001 kPa, Liquid | 900.7 | –
273.15 K, 19011 kPa, Liquid | – | 1004.8
273.15 K, 20000 kPa, Liquid | 906.6 | –
273.15 K, 20001 kPa, Liquid | – | 1008.7
283.15 K, 1000 kPa, Gas | – | 20.1
283.15 K, 1004 kPa, Gas | 19.4 | –
283.15 K, 2000 kPa, Gas | – | 42.5
283.15 K, 2001 kPa, Gas | 40.3 | –
283.15 K, 3000 kPa, Gas | 64.6 | 69.8
283.15 K, 4000 kPa, Gas | – | 106.2
283.15 K, 4001 kPa, Gas | 93.7 | –
283.15 K, 4500 kPa, Gas | – | 131.6
283.15 K, 5001 kPa, Gas | 131.6 | –
283.15 K, 5101 kPa, Liquid | – | 841.4
283.15 K, 5600 kPa, Gas | 170.5 | –
283.15 K, 6001 kPa, Liquid | – | 857.5
283.15 K, 7000 kPa, Liquid | – | 870.7
283.15 K, 8000 kPa, Liquid | – | 882.2
283.15 K, 9001 kPa, Liquid | 708.8 | 892.5
283.15 K, 10001 kPa, Liquid | – | 901.7
283.15 K, 10002 kPa, Liquid | 736.1 | –
283.15 K, 11001 kPa, Liquid | 757.6 | 910.2
283.15 K, 12000 kPa, Liquid | 775.3 | –
283.15 K, 12001 kPa, Liquid | – | 918
283.15 K, 13000 kPa, Liquid | – | 925.4
283.15 K, 13002 kPa, Liquid | 790.5 | –
283.15 K, 14000 kPa, Liquid | – | 932.2
283.15 K, 14001 kPa, Liquid | 803.8 | –
283.15 K, 15001 kPa, Liquid | – | 938.7
283.15 K, 15002 kPa, Liquid | 815.4 | –
283.15 K, 16001 kPa, Liquid | 825.4 | 944.9
283.15 K, 17000 kPa, Liquid | 835 | –
283.15 K, 17001 kPa, Liquid | – | 950.9
283.15 K, 18000 kPa, Liquid | 843.9 | –
283.15 K, 18003 kPa, Liquid | – | 956.5
283.15 K, 19001 kPa, Liquid | 852.1 | –
283.15 K, 19002 kPa, Liquid | – | 961.9
283.15 K, 20001 kPa, Liquid | 859.6 | 967
293.15 K, 1000 kPa, Gas | – | 18.4
293.15 K, 1001 kPa, Gas | 18.8 | –
293.15 K, 2000 kPa, Gas | 38.4 | 39.5
293.15 K, 3000 kPa, Gas | 60.8 | –
293.15 K, 3001 kPa, Gas | – | 64.3
293.15 K, 4001 kPa, Gas | 86.7 | 94.5
293.15 K, 5000 kPa, Gas | 117.2 | 135.5
293.15 K, 5700 kPa, Gas | – | 180.8
293.15 K, 6000 kPa, Gas | 156.7 | –
293.15 K, 6300 kPa, Liquid | – | 750.2
293.15 K, 7000 kPa, Liquid | – | 775
293.15 K, 7002 kPa, Gas | 213.8 | –
293.15 K, 7601 kPa, Gas | 271.4 | –
293.15 K, 8001 kPa, Liquid | – | 799.6
293.15 K, 9000 kPa, Liquid | – | 818.4
293.15 K, 9401 kPa, Liquid | 526.3 | –
293.15 K, 10000 kPa, Liquid | – | 833.7
293.15 K, 10001 kPa, Liquid | 579.5 | –
293.15 K, 11001 kPa, Liquid | 633.1 | –
293.15 K, 11002 kPa, Liquid | – | 846.8
293.15 K, 12001 kPa, Liquid | – | 858.3
293.15 K, 12002 kPa, Liquid | 669.7 | –
293.15 K, 13000 kPa, Liquid | 696.3 | 868.3
293.15 K, 14000 kPa, Liquid | – | 877.6
293.15 K, 14001 kPa, Liquid | 718.1 | –
293.15 K, 15001 kPa, Liquid | 736.4 | 886.2
293.15 K, 16001 kPa, Liquid | 752.3 | –
293.15 K, 16002 kPa, Liquid | – | 894.2
293.15 K, 17000 kPa, Liquid | 766.2 | –
293.15 K, 17001 kPa, Liquid | – | 901.7
293.15 K, 18000 kPa, Liquid | 778.4 | –
293.15 K, 18001 kPa, Liquid | – | 908.6
293.15 K, 19001 kPa, Liquid | 789.6 | 915.2
293.15 K, 20000 kPa, Liquid | 799.8 | –
293.15 K, 20001 kPa, Liquid | – | 921.4
